From PMC6384738, “Structure-Function Studies of Polymyxin B Lipononapeptides” (Molecules, 2019)
≈ marks a conversion by molar mass, not a printed value. Where a SMILES comes first, the peptide text is derived from it. Bridges are numbered along the chain shown (N, C = ends). [ ]: non-standard residue; d: D form. The star is where a group is joined. Benzoyl(3-Ph) = O=C(c1cccc(-c2ccccc2)c1)*; dDab = NCC[C@@H](N)C(=O)O; Octanoyl = CCCCCCCC(=O)*; Dab = NCC[C@H](N)C(=O)O

Columns and labels:
in vitro = conditions: human
Outline: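 HK-2 cells seeded 2000 cells/well in DMEM/F12 with 10% FBS, grown 24 h, then exposed to compounds (300 µM to 2.3 µM, 2-fold series; colistin/polymyxin B 1 mM to 7.8 µM) for 24 h at 37 °C. LDH in medium read at 450 nm after 30 min; cytotoxicity % relative to 1% Triton X-100 and untreated cells.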

K. pneumoniae ATCC 13833 = experiment: microbe, parasite or virus in culture; conditions: ATCC 13833, 18 h
Outline: (§1)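 Broth microdilution; read-out = minimum inhibitory concentration, mg/L. Comparators: polymyxin B, colistin, vancomycin, gentamicin.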

P. aeruginosa ATTC 27853 = experiment: microbe, parasite or virus in culture; conditions: ATTC 27853, 18 h
Outline: as §1

S. aureus ATCC 25923 = experiment: microbe, parasite or virus in culture; conditions: ATCC 25923, 18 h
Outline: as §1

K. pneumoniae BAA 2146 = experiment: microbe, parasite or virus in culture; conditions: BAA 2146, 18 h
Outline: as §1

[1] = system: P. aeruginosa FADDI PA070; experiment: microbe, parasite or virus in culture; conditions: FADDI PA070, 18 h
Outline: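 Growth inhibition is assessed by broth microdilution, with the MIC expressed in mg/L; polymyxin B, colistin, vancomycin and gentamicin act as positive controls.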

E. coli ATCC 25922 = experiment: microbe, parasite or virus in culture; conditions: ATCC 25922, 18 h
Outline: as §1

A. baumannii ATCC 19606 = experiment: microbe, parasite or virus in culture; conditions: ATCC 19606, 18 h
Outline: as §1

[2] = system: K. pneumoniae ATCC 700603; experiment: microbe, parasite or virus in culture; conditions: ATCC 700603, 18 h
Outline: as §1

[3] = system: ATCC reference strains (Escherichia coli, Klebsiella pneumoniae, A. baumannii, and P. aeruginosa); conditions: MIC comparison against most strains
Procedure: All compounds synthesised in this study were assessed for their minimum inhibitory concentrations (MIC, mg/L) by broth microdilution assay against five antibiotic-sensitive and resistant ATCC reference strains covering the Gram-negative ESKAPE pathogens (Escherichia coli, Klebsiella pneumoniae, A. baumannii, and P. aeruginosa) (Table 1, Table 2 and Table 3). Staphylococcus aureus was also included as a representative Gram-positive bacterial strain. […] Polymyxin B 1, colistin 2, vancomycin and gentamicin were used as positive inhibitor comparator compounds. Compounds were counter-screened against human proximal tubular epithelial cells (HK-2), using LDH release as a general indicator of cellular toxicity.

MIC K. pneumoniae ATCC 13833 (K. pneumoniae ATCC 13833) [µg/mL] | MIC P. aeruginosa ATTC 27853 (P. aeruginosa ATTC 27853) [µg/mL] | MIC S. aureus ATCC 25923 (S. aureus ATCC 25923) [µg/mL] | MIC K. pneumoniae BAA 2146 (K. pneumoniae BAA 2146) [µg/mL] | MIC P. aeruginosa FADDI PA070 [1] [µg/mL] | MIC E. coli ATCC 25922 (E. coli ATCC 25922) [µg/mL] | MIC A. baumannii ATCC 19606 (A. baumannii ATCC 19606) [µg/mL] | MIC K. pneumoniae ATCC 700603 [2] [µg/mL] | Structure (SMILES) | CC50 at 24 h (in vitro) [µM] | fold more active than nonapeptide 8 [3]
4 (≈ 3.67 µM) | 2 (≈ 1.84 µM) | >32 | 1 (≈ 0.918 µM) | 8 (≈ 7.34 µM) | 0.5 (≈ 0.459 µM) | 8 (≈ 7.34 µM) | 1 (≈ 0.918 µM) | CCCCCCCC(=O)N[C@H](C(=O)N[C@H](CCN)C(=O)N[C@H]1CCNC(=O)[C@H]([C@@H](C)O)NC(=O)[C@H](CCN)NC(=O)[C@H](CCN)NC(=O)[C@H](CC(C)C)NC(=O)[C@@H](Cc2ccccc2)NC(=O)[C@H](CCN)NC1=O)[C@@H](C)O [Compound 21] (Octanoyl-T[dDab][Dab][Dab][dF]L[Dab][Dab]T; lactam 3-C) | 289 | –
>32 | 4 (≈ 3.58 µM) | >32 | >32 | >32 | >32 | >32 | 32 (≈ 28.6 µM) | CCCCCCCC(=O)N[C@@H](CCC(=O)O)C(=O)N[C@H](CCN)C(=O)N[C@H]1CCNC(=O)[C@H]([C@@H](C)O)NC(=O)[C@H](CCN)NC(=O)[C@H](CCN)NC(=O)[C@H](CC(C)C)NC(=O)[C@@H](Cc2ccccc2)NC(=O)[C@H](CCN)NC1=O [Compound 32] (Octanoyl-E[dDab][Dab][Dab][dF]L[Dab][Dab]T; lactam 3-C) | > 300 | –
>32 | 4 (≈ 3.47 µM) | >32 | >32 | 8 (≈ 6.95 µM) | 16 (≈ 13.9 µM) | >32 | 16 (≈ 13.9 µM) | CCCCCCCC(=O)N[C@@H](Cc1ccc(O)cc1)C(=O)N[C@H](CCN)C(=O)N[C@H]1CCNC(=O)[C@H]([C@@H](C)O)NC(=O)[C@H](CCN)NC(=O)[C@H](CCN)NC(=O)[C@H](CC(C)C)NC(=O)[C@@H](Cc2ccccc2)NC(=O)[C@H](CCN)NC1=O [Compound 29] (Octanoyl-Y[dDab][Dab][Dab][dF]L[Dab][Dab]T; lactam 3-C) | > 300 | –
>32 | 1 (≈ 0.93 µM) | >32 | 8 (≈ 7.44 µM) | 16 (≈ 14.9 µM) | 8 (≈ 7.44 µM) | >32 | 4 (≈ 3.72 µM) | CCCCCCCC(=O)N[C@@H](CO)C(=O)N[C@H](CCN)C(=O)N[C@H]1CCNC(=O)[C@H]([C@@H](C)O)NC(=O)[C@H](CCN)NC(=O)[C@H](CCN)NC(=O)[C@H](CC(C)C)NC(=O)[C@@H](Cc2ccccc2)NC(=O)[C@H](CCN)NC1=O [Compound 30] (Octanoyl-S[dDab][Dab][Dab][dF]L[Dab][Dab]T; lactam 3-C) | > 300 | –

More lines, now with the values behind:

Structure (SMILES) | MIC K. pneumoniae ATCC 13833 (K. pneumoniae ATCC 13833) [µg/mL] | MIC P. aeruginosa ATTC 27853 (P. aeruginosa ATTC 27853) [µg/mL] | MIC S. aureus ATCC 25923 (S. aureus ATCC 25923) [µg/mL] | MIC K. pneumoniae BAA 2146 (K. pneumoniae BAA 2146) [µg/mL] | MIC P. aeruginosa FADDI PA070 [1] [µg/mL] | MIC E. coli ATCC 25922 (E. coli ATCC 25922) [µg/mL] | MIC A. baumannii ATCC 19606 (A. baumannii ATCC 19606) [µg/mL] | MIC K. pneumoniae ATCC 700603 [2] [µg/mL] | CC50 at 24 h (in vitro) [µM] | fold more active than nonapeptide 8 [3]
CC(C)C[C@@H]1NC(=O)[C@@H](Cc2ccccc2)NC(=O)[C@H](CCN)NC(=O)[C@@H](NC(=O)[C@@H](CCN)NC(=O)[C@@H](NC(=O)c2cccc(-c3ccccc3)c2)[C@@H](C)O)CCNC(=O)[C@H]([C@@H](C)O)NC(=O)[C@H](CCN)NC(=O)[C@H](CCN)NC1=O [Compound 27] ({Benzoyl(3-Ph)}-T[dDab][Dab][Dab][dF]L[Dab][Dab]T; lactam 3-C) | 32 (≈ 28 µM) | 2 (≈ 1.75 µM) | >32 | 8 (≈ 7 µM) | 8 (≈ 7 µM) | 4 (≈ 3.5 µM) | >32 | 16 (≈ 14 µM) | > 300 | –
CCCCCCCC(=O)N[C@@H](CCN)C(=O)N[C@H](C(=O)N[C@@H](CCN)C(=O)N[C@H]1CCNC(=O)[C@H]([C@@H](C)O)NC(=O)[C@H](CCN)NC(=O)[C@H](CCN)NC(=O)[C@H](CC(C)C)NC(=O)[C@@H](Cc2ccccc2)NC(=O)[C@H](CCN)NC1=O)[C@@H](C)O [PmxB3, polymyxin B3, reference compound] (Octanoyl-[Dab]T[Dab][Dab][Dab][dF]L[Dab][Dab]T; lactam 4-C) | 2 (≈ 1.68 µM) | 0.5 (≈ 0.42 µM) | >32 | 0.5 (≈ 0.42 µM) | – | – | – | 1 (≈ 0.841 µM) | > 300 | 2- to 4 fold
